Experimental data taken from US6653529B2, “Use of the maize X112 mutant ahas 2 gene and imidazolinone herbicides for selection of transgenic monocots, maize, rice and wheat plants resistant to the imidazolinone herbicides” (BASF Aktiengesellschaft, priority 2000, dated 2003).
Where “and” joins values, the source holds several entries; their conditions need not be identical. Identical values can stand only once.

How the values were obtained:
Assay type in all cases: in vivo
[1] = system: 3395IR (homozygous XA17 imi-resistant corn line); experiment: Greenhouse spray test of corn lines with imidazolinone herbicides, injury score; conditions: for Score, individual plants (0 dead plants, 5 healthy plants with no injury): 16 days after treatment; for M.S.: score 0 (dead) to 5 (healthy), 16 days
Source text: (§1) Grow one corn plant per pot (5×5 inch) in a 3×5 flat till three- to four-leaf stage (about 9 to 13 days depending on the weather). On the day of spraying, water the plants well and let excess water drip out. Spray plants on a belt-sprayer with the imidazolinone herbicides at desired rates. […] When temperature was too high, base water plants to prevent wilting. Closely observe the plants for the next two to three weeks. Symptoms of herbicide injury will be visible three days after spraying and susceptible plants will die within two to three weeks depending on temperature.
(§2) The plants were rated on a scale of 0-5 with 0 for dead plants and 5 for healthy plants with no or minimum injury.
(§3) Two transgenic hybrids BAa-4 and MAa-7 lines (see FIG. 5 for their pedigree), a non-transformed control line B×A (B73×A188), 8962IT (heterozygous XI12 imi-tolerant corn line), 8962 (wild type control) and 3395IR (homozygous XA17 imi-resistant corn line) (8962IT and 8962 were from ICI, now Garst Seed Company, Slater, Iowa 50244, and 3395IR was from Pioneer Hi-Bred International Inc, Iowa 50306-3453). Plants were sprayed with 4, 8, 16 or 20×PURSUIT® imazethapyr, ARSENAL® imazapyr, CADRE® imazameth or RAPTOR® imazamox. Plants were scored 0 to 5 (with 0 being dead plants, 5 being healthy plants with no injury) individually 16 days after herbicide treatments. […] For the four tested imidazolinones, transgenic plants could tolerate higher rates of ARSENAL® imazapyr, PURSUIT® imazethapyr, than CADRE® imazameth and RAPTOR® imazamox.

[2] = system: non-transformed control corn line BxA (B73×A188); experiment: as above; conditions: for Score, individual plants (0 dead plants, 5 healthy plants with no injury): 16 days after treatment; for M.S.: score 0 (dead) to 5 (healthy), 16 days
Source text: as §1, §2, §3

[3] = system: transgenic corn hybrid BAa-4; experiment: as above; conditions: BAa-4; for Score, individual plants (0 dead plants, 5 healthy plants with no injury): 16 days after treatment; for M.S.: score 0 (dead) to 5 (healthy), 16 days
Source text: as §1, §2, §3

[4] = system: transgenic corn hybrid MAa-7; experiment: as above; conditions: MAa-7; for Score, individual plants (0 dead plants, 5 healthy plants with no injury): 16 days after treatment; for M.S.: score 0 (dead) to 5 (healthy), 16 days
Source text: as §1, §2, §3

[5] = system: 8692 (wild type control corn line); experiment: as above; conditions: for Score, individual plants (0 dead plants, 5 healthy plants with no injury): 16 days after treatment; for M.S.: score 0 (dead) to 5 (healthy), 16 days
[6] = system: 8692IT (heterozygous XI12 imi-tolerant corn line); experiment: as above; conditions: for Score, individual plants (0 dead plants, 5 healthy plants with no injury): 16 days after treatment; for M.S.: score 0 (dead) to 5 (healthy), 16 days
[7] = system: rice plants (transgenic Lines 26 and 29; Nt control); experiment: Greenhouse herbicide tests on rice; conditions: for average seed set in two transgenic lines: PURSUIT, RAPTOR, CADRE, SCEPTER at all rates tested, ARSENAL 1 to 2×; for rate at which growth of transgenic plants was slightly affected: post-emergence, fresh weight and visual observation
Source text: We evaluated the response of transgenic rice to PURSUIT® imazethapyr application in the greenhouse. In this experiment, we included 2 transgenic lines and their untransformed counterpart (Nt). The transgenic lines, designated as Line 26 and 29, were T3 progeny derived from previously identified homozygous resistant transgenic plants containing the maize XI12 ahas2 gene driven by its own promoter. All seeds were pre-germinated in water for 2-3 days then grown in a planting mixture consisting of 1:1 soil and MetroMix 360 (The Scotts Company, Marysville, Ohio 43040) in 6-inch pots (2 seeds per pot) in the greenhouse and sprayed with PURSUIT® imazethapyr at 63, 125, or 250 g ai/ha. For post-emergence application, the plants were sprayed 15 days after seeding, at which time most plants had 3 leaves. For pre-emergence treatment, PURSUIT® imazethapyr was sprayed one day after seeding. Each treatment contained 20 plants and, and 3 replicates per treatment. One set of materials was not sprayed and used as control. The plants were grown in the greenhouse and harvested at maturity. The amount of PURSUIT® imazethapyr applied in this study (63, 125, or 250 g ai/ha) was close to 1, 2 or 4× field application rate for imi-resistant corn (refer to Table 3) since PURSUIT® imazethapyr is not currently labeled for use in rice fields. A custom designed belt sprayer was operated as described (Newhouse et al. 1992) for all herbicide applications. Five plants from each treatment were randomly chosen and individually measured for morphological traits. Means and standard deviations were calculated over three replications. Plant heights were measured from the base of the plant to the tip of the flag leaf 93 days after herbicide applications (DAH) and number of tillers per plant were counted 102-103 DAH. Data on number of panicles per plant and yield were collected after plants were harvested.
A total of 9 herbicides, 5 imidazolinones, two rice herbicides and ACCENT® (nicosulfuron) and CLASSIC® (clorimuron-ethyl) were applied in this study. Materials and methods were basically the same as described above, except that instead of 6″ pots, flats with 18 (3″×3″ per cell) cells were used, and 10-12 seeds were planted to one 3″×3″ cell. Ten plants were maintained in one cell in the post-emergence application. Each herbicide was sprayed at 4 different rates, 1, 2, 4, and 6×, as either pre or post-emergence applications with three replications per treatment. The name and amount of herbicide applied in this experiment and information relevant to their commercial applications are listed in Table 3. For simplicity and convenience, the lowest concentration used is referred as 1× rate, 2, 4 and 6× rates can be calculated as multiples of 1×.
To monitor plant response to various herbicides, data on fresh weight was collected. For pre-emergence applications, all plants from one cell were harvested 32 days after spraying (36-day old plants) and weighed. Twenty-nine days after herbicide application, 5 plants (44-day old plants) from each cell in the post-emergence application, were cut and weighed individually. Mean fresh weight for each treatment was calculated over three replications. The remaining 5 plants were grown in the greenhouse to maturity at which time, panicles of 3 plants were collected, and number of filled seeds and number of total kernels were counted to determine percentage of seed set.

[8] = 4×: PURSUIT 250, RAPTOR 160, ARSENAL 96, CADRE 400 g/ha
[9] = 8×: PURSUIT 500, RAPTOR 320, ARSENAL 192, CADRE 800 g/ha
[10] = 16×: RAPTOR 640 g/ha, ARSENAL 384 g/ha, CADRE 1.6 kg/ha

| Compound | Score, individual plants (0 dead plants, 5 healthy plants with no injury) [1, 8] | M.S. [1, 8] | Score, individual plants (0 dead plants, 5 healthy plants with no injury) [1, 9] | M.S. [1, 9] | Score, individual plants (0 dead plants, 5 healthy plants with no injury) [1, 10] | M.S. [1, 10] | Score, individual plants (0 dead plants, 5 healthy plants with no injury) [2, 8] | M.S. [2, 8] | Score, individual plants (0 dead plants, 5 healthy plants with no injury) [2, 9] | M.S. [2, 9] | Score, individual plants (0 dead plants, 5 healthy plants with no injury) [2, 10] | M.S. [2, 10] | Score, individual plants (0 dead plants, 5 healthy plants with no injury) [3, 8] | M.S. [3, 8] | Score, individual plants (0 dead plants, 5 healthy plants with no injury) [3, 9] | M.S. [3, 9] | Score, individual plants (0 dead plants, 5 healthy plants with no injury) [3, 10] | M.S. [3, 10] | Score, individual plants (0 dead plants, 5 healthy plants with no injury) [4, 8] | M.S. [4, 8] | other results |
| --- | --- | --- | --- | --- | --- | --- | --- | --- | --- | --- | --- | --- | --- | --- | --- | --- | --- | --- | --- | --- | --- |
| CC(C)C1(C)N=C(c2ncccc2C(=O)O)NC1=O (stereo not drawn) [ARSENAL ®, imazapyr] | 5 | 5 | 5 | 5 | 4 and 5 (4×) | 4.8 | 0 | 0 | 0 | 0 | 0 | 0 | 5 | 5 | 5 | 5 | 5 (2×) and 4 (3×) | 4.4 | 5 | 5 | Score, individual plants (0 dead plants, 5 healthy plants with no injury) [4, 9]: 5; M.S. [4, 9]: 5; Score, individual plants (0 dead plants, 5 healthy plants with no injury) [4, 10]: 5 (4×) and 4; M.S. [4, 10]: 4.8; Score, individual plants (0 dead plants, 5 healthy plants with no injury) [5, 8]: 0; M.S. [5, 8]: 0; Score, individual plants (0 dead plants, 5 healthy plants with no injury) [5, 9]: 0; M.S. [5, 9]: 0; Score, individual plants (0 dead plants, 5 healthy plants with no injury) [5, 10]: 0; M.S. [5, 10]: 0; Score, individual plants (0 dead plants, 5 healthy plants with no injury) [6, 8]: 4; M.S. [6, 8]: 4; Score, individual plants (0 dead plants, 5 healthy plants with no injury) [6, 9]: 4 (2×) and 3 (3×); M.S. [6, 9]: 3.4; Score, individual plants (0 dead plants, 5 healthy plants with no injury) [6, 10]: 4 and 3 (4×); M.S. [6, 10]: 3.2; seed set in the two transgenic lines ([7]; 4× (96 g ai/ha) and 6× (144 g ai/ha)): ≤ 20%; average seed set in two transgenic lines [7]: about 85%; effect on seed set of transgenic plants ([7]; higher rates): severe sterility; rate at which growth of transgenic plants was slightly affected [7]: 6 × |
| Cc1cnc(C2=NC(=O)C(C)(C(C)C)N2)c(C(=O)O)c1 (stereo not drawn) [CADRE ®, imazameth] | 5 | 5 | 5 | 5 | 4 (2×) and 5 (3×) | 4.6 | 0 | 0 | 0 | 0 | 0 | 0 | 5 | 5 | 3 (2×) and 2 (3×) | 2.4 | 3 and 1 and 0 (3×) | 0.8 | 5 (4×) and 4 | 4.8 | Score, individual plants (0 dead plants, 5 healthy plants with no injury) [4, 9]: 2 (2×) and 4 (2×) and 3; M.S. [4, 9]: 3; Score, individual plants (0 dead plants, 5 healthy plants with no injury) [4, 10]: 0 (2×) and 1 (3×); M.S. [4, 10]: 0.6; Score, individual plants (0 dead plants, 5 healthy plants with no injury) [5, 8]: 0; M.S. [5, 8]: 0; Score, individual plants (0 dead plants, 5 healthy plants with no injury) [5, 9]: 0; M.S. [5, 9]: 0; Score, individual plants (0 dead plants, 5 healthy plants with no injury) [5, 10]: 0; M.S. [5, 10]: 0; Score, individual plants (0 dead plants, 5 healthy plants with no injury) [6, 8]: 4 (3×) and 5 (2×); M.S. [6, 8]: 4.4; Score, individual plants (0 dead plants, 5 healthy plants with no injury) [6, 9]: 3 (3×) and 2 (2×); M.S. [6, 9]: 2.6; Score, individual plants (0 dead plants, 5 healthy plants with no injury) [6, 10]: 1 (2×) and 2 (3×); M.S. [6, 10]: 1.6; average seed set in two transgenic lines [7]: about 85%; rate at which growth of transgenic plants was slightly affected [7]: 6 × |
